The source of these data is US20260364030A1, “NOVEL SELECTIVE INHIBITORS OF LYSYL OXIDASES” (Syntara Limited, priority 2022, published 2026).

Like-named read-outs stand apart in the source and are kept apart here.

Common to all, as to assay type: biochemical
Experiment [1] deals with T1, LOXL2 (Homo sapiens, UniProt Q9Y4K0).
T1 sequence (Q9Y4K0 26-774): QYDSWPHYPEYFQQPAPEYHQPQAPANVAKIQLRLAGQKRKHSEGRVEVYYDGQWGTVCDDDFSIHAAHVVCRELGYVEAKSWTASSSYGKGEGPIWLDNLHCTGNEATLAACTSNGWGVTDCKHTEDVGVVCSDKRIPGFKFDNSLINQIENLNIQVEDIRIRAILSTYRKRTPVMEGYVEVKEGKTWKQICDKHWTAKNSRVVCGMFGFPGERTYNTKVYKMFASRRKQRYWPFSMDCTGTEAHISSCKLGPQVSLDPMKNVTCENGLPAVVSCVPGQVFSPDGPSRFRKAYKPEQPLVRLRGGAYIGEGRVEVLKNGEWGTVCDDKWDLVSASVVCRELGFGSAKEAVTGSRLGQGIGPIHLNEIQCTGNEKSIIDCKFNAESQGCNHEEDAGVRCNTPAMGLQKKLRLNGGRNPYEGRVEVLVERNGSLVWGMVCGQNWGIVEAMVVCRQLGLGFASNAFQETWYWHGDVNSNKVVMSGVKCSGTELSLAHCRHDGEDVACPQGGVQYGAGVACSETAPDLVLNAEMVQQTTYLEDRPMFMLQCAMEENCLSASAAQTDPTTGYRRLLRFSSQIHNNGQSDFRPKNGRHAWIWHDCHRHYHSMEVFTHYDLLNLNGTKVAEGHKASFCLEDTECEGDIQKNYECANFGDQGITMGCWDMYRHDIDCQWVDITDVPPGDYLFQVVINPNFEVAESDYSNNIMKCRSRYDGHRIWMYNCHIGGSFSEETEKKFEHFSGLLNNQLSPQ
Nature of the experiment: LOXL2 inhibition, Amplex Red oxidation assay. Here is the method:
(§1) LOX and LOXL protein family members can be acquired as recombinant active proteins from commercial sources, or extracted from animal tissues like bovine aorta, tendons, pig skin; or prepared from cell cultures. The inhibitory effects of the compounds of the present invention were tested against the given LOX or LOXL preparation using a method based on the detection of hydrogen peroxide with an Amplex Red oxidation assay [Zhou et al, 1997]. The assay was developed using either 384 or 96 well format. Briefly, in a standard black, clear bottom 384 well plate assay 25 µL of a dilution of any of the isoenzymes and orthologues in 1.2 M urea, 50 mM sodium borate buffer (pH 8.2) were added into each well in the presence of […] and 0.5 mM pargyline (to inhibit SSAO and MAO-B and MAO-A, respectively; not necessary if the enzyme is from a recombinant or purified form). […] of a reaction mixture containing twice the KM concentration of putrescine (Sigma Aldrich, e.g. 20 mM for LOX and LOXL1 or 10 mM for LOXL2 and 4 mM for LOXL3 and LOXL4), 120 µM Amplex Red (Thermo Fisher Scientific) and 1.5 U/mL horseradish peroxidase (Sigma Aldrich) prepared in 1.2 M urea, 50 mM sodium borate buffer (pH 8.2) were then added to the corresponding wells. The above volumes were doubled in the case of 96 wells plate. The fluorescence (RFU) was read every 2.5 min for 30 min at 37 °C, excitation 544 nm and emission 590 (Optima; BMG labtech). The slope/min of the kinetics for each well was calculated using MARS data analysis software (BMG labtech) and this value was used to deduce the IC50 value (Dotmatics). The ability of the inventive compounds to inhibit the amine oxidase activity of LOX and other family members is shown in Table 5.

The target in experiment [2] is T1, LOXL2. Nature of the experiment: Jump dilution experiment, sustained inhibition of LOXL2. To be noted: for LOXL2 enzyme activity recovery: at 21-30 min after jump dilution, 10×IC50, 40 min preincubation at 37 °C; for Sustained inhibition of LOXL2: jump dilution, 21-30 min. The protocol: Jump Dilution experiment: The assay was developed using a 96 well format and the starting enzyme concentration was set 100 times higher than for the inhibition studies. The enzyme was incubated for 40 minutes at 37 °C in presence of 10×IC50 concentrations of the test inhibitor. After the incubation, the mixture was diluted 50x in assay buffer, followed by a further 2× dilution in Amplex Red-horseradish peroxidase-putrescine reaction mix (as for Example 2) prior to the fluorescence measurement. Results were expressed in % recovery of the signal at 21-30 min by comparison with non-inhibited controls. LOXL1 is used as a surrogate for LOX owing to similar pharmacological behaviour.

In experiment [3] the target is T2, Bovine LOX (Bos taurus, UniProt P33072).
T2 sequence (P33072 170-418): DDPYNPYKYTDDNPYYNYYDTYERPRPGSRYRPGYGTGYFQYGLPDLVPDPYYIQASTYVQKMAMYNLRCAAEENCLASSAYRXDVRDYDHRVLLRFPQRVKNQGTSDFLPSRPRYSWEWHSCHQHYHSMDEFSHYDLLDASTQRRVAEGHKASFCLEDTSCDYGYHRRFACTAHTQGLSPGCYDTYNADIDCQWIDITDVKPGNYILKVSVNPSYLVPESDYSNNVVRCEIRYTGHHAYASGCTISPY
The experiment is described as follows: LOX inhibition, hydrogen peroxide Amplex Red oxidation assay. Here is the method: as §1

The target in experiment [4] is Human recombinant LOXL3 (Homo sapiens, UniProt P58215). The experiment is described as follows: LOXL3 inhibition, Amplex Red oxidation assay. Conditions: 30 min incubation with enzyme at 37 °C. Here is the method:
LOX and LOXL protein family members can be acquired as recombinant active proteins from commercial sources, or extracted from animal tissues like bovine aorta, tendons, pig skin; or prepared from cell cultures. The inhibitory effects of the compounds of the present invention were tested against the given LOX or LOXL preparation using a method based on the detection of hydrogen peroxide with an Amplex Red oxidation assay [Zhou et al, 1997]. The assay was developed using either 384 or 96 well format. Briefly, in a standard black, clear bottom 384 well plate assay 25 µL of a dilution of any of the isoenzymes and orthologues in 1.2 M urea, 50 mM sodium borate buffer (pH 8.2) were added into each well in the presence of […] and 0.5 mM pargyline (to inhibit SSAO and MAO-B and MAO-A, respectively; not necessary if the enzyme is from a recombinant or purified form). Test compounds were dissolved in DMSO and tested in a Concentration Response Curve (CRC) with 11 data points, typically in the micromolar or nanomolar range after incubation with the enzyme for 30 min at 37 °C. […] The fluorescence (RFU) was read every 2.5 min for 30 min at 37 °C, excitation 544 nm and emission 590 (Optima; BMG labtech). The slope/min of the kinetics for each well was calculated using MARS data analysis software (BMG labtech) and this value was used to deduce the IC50 value (Dotmatics). […]

Where [5] appears, read: 30 min incubation with enzyme at 37 °C, read-out: Human recombinant LOXL2 Activity IC50.
The mark [6] stands for this setting: 30 min incubation with enzyme at 37 °C.

Sequence of Human recombinant LOXL3 (P58215 26-753): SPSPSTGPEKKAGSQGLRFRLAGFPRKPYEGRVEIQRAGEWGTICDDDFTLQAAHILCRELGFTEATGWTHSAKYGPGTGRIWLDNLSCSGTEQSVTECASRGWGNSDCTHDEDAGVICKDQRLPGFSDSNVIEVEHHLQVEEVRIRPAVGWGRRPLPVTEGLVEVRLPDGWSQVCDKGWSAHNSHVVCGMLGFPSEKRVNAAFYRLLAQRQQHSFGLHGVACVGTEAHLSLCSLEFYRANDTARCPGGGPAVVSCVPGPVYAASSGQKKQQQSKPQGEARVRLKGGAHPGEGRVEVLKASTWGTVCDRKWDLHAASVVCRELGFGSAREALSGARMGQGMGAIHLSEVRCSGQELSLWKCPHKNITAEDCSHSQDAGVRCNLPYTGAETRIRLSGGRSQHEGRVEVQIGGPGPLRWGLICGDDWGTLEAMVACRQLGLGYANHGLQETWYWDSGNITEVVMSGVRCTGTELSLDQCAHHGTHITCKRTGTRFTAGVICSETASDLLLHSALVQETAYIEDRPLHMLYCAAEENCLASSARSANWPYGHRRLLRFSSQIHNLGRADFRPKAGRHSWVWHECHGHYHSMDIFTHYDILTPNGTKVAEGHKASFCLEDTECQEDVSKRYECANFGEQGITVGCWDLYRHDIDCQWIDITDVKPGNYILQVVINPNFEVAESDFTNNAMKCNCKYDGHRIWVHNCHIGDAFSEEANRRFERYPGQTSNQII

As a reminder, the IC50 is the point on the concentration scale where inhibition reaches its midpoint. For `NC/C(=C\F)CS(=O)(=O)c1ccccc1` [Compound 1, (E)-3-fluoro-2-((phenylsulfonyl)methyl)prop-2-en-1-amine], the IC50 in experiment [1] (setting [5]) is 4.8 µM; in experiment [1] (2 h incubation with enzyme at 37 °C, read-out: Human LOXL2 Activity IC50), less than 2 µM; in experiment [3] (setting [6]), 10 µM; in experiment [3] (2 h incubation with enzyme at 37 °C) it was less than 5 µM; in experiment [4] it was 5.9 µM. For the same compound, the “LOXL2 enzyme activity recovery” value in experiment [2] came out at 2.5%. Besides, the “Sustained inhibition of LOXL2” value in experiment [2] is recorded as “sustained inhibition”.
Regarding `N#CCCN` [BAPN, β-aminopropionitrile, reference compound], the IC50 stood at 0.4 µM in experiment [1] (setting [5]), 2.3 µM in experiment [3] (setting [6]) and 0.5 µM in experiment [4]. In addition, the “LOXL2 enzyme activity recovery” value in experiment [2] came to 11.2%. Besides, the “Sustained inhibition of LOXL2” value in experiment [2] was “sustained inhibition”.
